Measurements taken from patent US7196110B2, “N-substituted tricyclic 3-aminopyrazoles as inhibitors for the treatment of cell proliferative disorders” (Janssen Phamaceutica N.V., priority 2002, dated 2007).
Where two headings read alike, the source gives them in different places.

Biological target: T1, PDGF-receptor beta enzyme comprising the tyrosine kinase domain (Homo sapiens, UniProt P09619)
T1 construct: from amino acid 545 to 1106 of GenBank Access NO: AAA36427
Test: Inhibition of PDGF-receptor kinase activity (cell-free, PLC1 peptide, 33P Flashplate)
Type: biochemical
Conditions: for inhibition at 10 µM: read-out: Percent Inhibition @ 10 uM
Summary of the method: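 Recombinant kinase domain (aa 545–1106) phosphorylated a biotinylated PLC1 peptide with 5 μM ATP plus 33P-γ-ATP, in Tris pH 8, MgCl2, Na3VO4 and 1 mM DTT, for 60 min at 30 °C. Retained 33P was counted after washing. IC50 is the concentration halving activity versus no-inhibitor reactions.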

[1] = PDGF-R kinase activity, compound at 10 uM
[2] = PDGF-R kinase activity, read-out: IC50

T1 sequence (P09619 545-1106): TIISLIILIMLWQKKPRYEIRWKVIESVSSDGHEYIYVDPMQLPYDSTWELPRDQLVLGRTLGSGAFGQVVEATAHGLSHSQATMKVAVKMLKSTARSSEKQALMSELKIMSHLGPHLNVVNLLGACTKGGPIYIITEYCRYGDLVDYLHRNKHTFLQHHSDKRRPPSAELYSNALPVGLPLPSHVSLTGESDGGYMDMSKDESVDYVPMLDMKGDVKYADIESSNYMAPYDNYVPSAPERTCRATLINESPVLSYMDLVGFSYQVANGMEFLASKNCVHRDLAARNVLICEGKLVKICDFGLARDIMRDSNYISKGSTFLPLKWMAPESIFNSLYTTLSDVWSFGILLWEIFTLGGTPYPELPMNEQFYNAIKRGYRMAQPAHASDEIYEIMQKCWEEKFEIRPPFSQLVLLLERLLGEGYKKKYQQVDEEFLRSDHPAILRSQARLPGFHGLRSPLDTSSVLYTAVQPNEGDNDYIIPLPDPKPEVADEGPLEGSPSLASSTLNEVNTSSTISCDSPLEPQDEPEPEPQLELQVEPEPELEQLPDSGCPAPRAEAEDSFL

Compound | inhibition at 10 µM [1] [%] | IC50 [2] [µM] | further results
CN(C)CCCOc1cccc2c1Cc1c-2n[nH]c1Nc1ccc(F)cc1 [Compound 73, [5-(3-Dimethylamino-propoxy)-2,4-dihydro-indeno[1,2-c]pyrazol-3-yl]-(4-fluoro-phenyl)-amine] | ~30 | > 50 | –
Cc1cccc2c1Cc1c-2n[nH]c1Nc1cccnc1 [Compound 100, (5-Methyl-2,4-dihydro-indeno[1,2-c]pyrazol-3-yl)-pyridin-3-yl-amine] | 81 | 1.72 | –
Nc1ccc2c(c1)Cc1c-2n[nH]c1Nc1cccc(F)c1 [Compound 121, N3-(3-Fluoro-phenyl)-2,4-dihydro-indeno[1,2-c]pyrazole-3,6-diamine] | 92 | 0.143 | –
CN(C)CCCOc1ccc2c(c1)Cc1c-2n[nH]c1Nc1cccnc1 [Compound 161, [6-(3-Dimethylamino-propoxy)-2,4-dihydro-indeno[1,2-c]pyrazol-3-yl]-pyridin-3-yl-amine] | 84 | 0.382 | –
COc1cc2c(cc1OC)-c1n[nH]c(Nc3ccc(Br)cc3)c1C2 [Compound 45, (4-Bromo-phenyl)-(6,7-dimethoxy-2,4-dihydro-indeno[1,2-c]pyrazol-3-yl)-amine] | 86 | 2.16 | –
Cc1ccc(Cl)cc1Nc1[nH]nc2c1Cc1ccccc1-2 [Compound 338, (5-Chloro-2-methyl-phenyl)-(2,4-dihydro-indeno[1,2-c]pyrazol-3-yl)-amine] | 78.5 | 0.451 | –
Fc1cccc(Nc2[nH]nc3c2Cc2cc(Cl)ccc2-3)c1 [Compound 191, (6-Chloro-2,4-dihydro-indeno[1,2-c]pyrazol-3-yl)-(3-fluoro-phenyl)-amine] | 88 | 0.0686 | –
COc1cc2c(cc1OC)C(C(C)C)c1c-2n[nH]c1Nc1cccc(Br)c1 (centres unmarked) [Compound 538, (3-Bromo-phenyl)-(4-isopropyl-6,7-dimethoxy-2,4-dihydro-indeno[1,2-c]pyrazol-3-yl)-amine] | 65 | – | –
CCC1c2cc(OC)c(OC)cc2-c2[nH]nc(Nc3cccc(Br)c3)c21 (single isomer, unassigned) [Compound 482, (3-Bromo-phenyl)-(4-ethyl-6,7-dimethoxy-1,4-dihydro-indeno[1,2-c]pyrazol-3-yl)-amine] | – | 0.0386 | Percent Inhibition @ 10 uM (PDGF-R kinase activity, compound at 10 uM, 10 µM): 100%
COc1cc2c(cc1OC)-c1n[nH]c(Nc3ccc(Br)cc3C(F)(F)F)c1C2 [Compound 76, (4-Bromo-2-trifluoromethyl-phenyl)-(6,7-dimethoxy-2,4-dihydro-indeno[1,2-c]pyrazol-3-yl)-amine] | 16 | > 50 | –
COC(=O)Cn1nc(Nc2cccc(F)c2)c2c1-c1cc(OC)c(OC)cc1C2 [Compound 509, [3-(3-Fluoro-phenylamino)-6,7-dimethoxy-4H-indeno[1,2-c]pyrazol-1-yl]-acetic acid methyl ester] | 30.5 | – | –
COCC(=O)OCC(=O)n1nc(Nc2cccc(F)c2)c2c1-c1cc(OC)c(OC)cc1C2 [Compound 473, Methoxy-acetic acid 2-[3-(3-fluoro-phenylamino)-6,7-dimethoxy-4H-indeno[1,2-c]pyrazol-1-yl]-2-oxo-ethyl ester] | 98.5 | 0.00896 | –
CCOP(=O)(OCC)n1nc(Nc2cccc(F)c2)c2c1-c1cc(OC)c(OC)cc1C2 [Compound 446, [3-(3-Fluoro-phenylamino)-6,7-dimethoxy-4H-indeno[1,2-c]pyrazol-1-yl]-phosphonic acid diethyl ester] | – | – | IC50 (IC50 (μM), PDGF-R kinase activity): 0.266 µM; inhibition at 10 µM: 93.5%
COc1cc2c(cc1OC)-c1n[nH]c(Nc3cccc(C(=O)N4CCN(C)CC4)c3)c1C2 [Compound 319, [3-(6,7-Dimethoxy-2,4-dihydro-indeno[1,2-c]pyrazol-3-ylamino)-phenyl]-(4-methyl-piperazin-1-yl)-methanone] | 80.5 | 2.2 | –
Fc1cccc(Nc2[nH]nc3c2Cc2cc4c(cc2-3)OCO4)c1 [Compound 96, (2,9-Dihydro-5,7-dioxa-2,3-diaza-cyclopenta[a]-s-indacen-1-yl)-(3-fluoro-phenyl)-amine] | 93 | 0.076 | –
COc1ccc(OC)c(Nc2[nH]nc3c2Cc2ccc(C)cc2-3)c1 [Compound 184, (2,5-Dimethoxy-phenyl)-(7-methyl-2,4-dihydro-indeno[1,2-c]pyrazol-3-yl)-amine] | 94 | 1.1 | –
c1cncc(Nc2[nH]nc3c2Cc2cc4c(cc2-3)OCO4)c1 [Compound 126, (2,9-Dihydro-5,7-dioxa-2,3-diaza-cyclopenta[a]-s-indacen-1-yl)-pyridin-3-yl-amine] | 65 | 0.176 | –
COc1cc2c(cc1OC)-c1n[nH]c(Nc3ccc(N4CCN(C)CC4)cc3)c1C2 [Compound 51, (6,7-Dimethoxy-2,4-dihydro-indeno[1,2-c]pyrazol-3-yl)-[4-(4-methyl-piperazin-1-yl)-phenyl]-amine] | 30 | 26.7 | –

Compound | inhibition at 10 µM [1] [%] | IC50 [2] [µM] | further results
COc1cc2c(cc1OC)-c1n[nH]c(Nc3ccc(S(=O)(=O)C4CCNCC4)cc3)c1C2 [Compound 221, (6,7-Dimethoxy-2,4-dihydro-indeno[1,2-c]pyrazol-3-yl)-[4-(piperidine-4-sulfonyl)-phenyl]-amine] | 71 | 1.6 | –
CCC1c2cc(OC)c(OC)cc2-c2nn(C(=O)COCc3ccccc3)c(Nc3cccc(Br)c3)c21 (centres unmarked) [Compound 518, 2-Benzyloxy-1-[3-(3-bromo-phenylamino)-4-ethyl-6,7-dimethoxy-4H-indeno[1,2-c]pyrazol-2-yl]-ethanone] | 92.5 | 0.184 | –
COc1cc2c(cc1OC)-c1n[nH]c(Nc3ccccc3Cl)c1C2 [Compound 9, (2-Chloro-phenyl)-(6,7-dimethoxy-2,4-dihydro-indeno[1,2-c]pyrazol-3-yl)-amine] | 89 | – | –
COc1cc2c(cc1OC)-c1n[nH]c(Nc3cccc(F)c3Br)c1C2 [Compound 410, (2-Bromo-3-fluoro-phenyl)-(6,7-dimethoxy-2,4-dihydro-indeno[1,2-c]pyrazol-3-yl)-amine] | 83.5 | 1.08 | –
COc1cc2c(cc1OCC(O)CO)Cc1c-2n[nH]c1NCc1ccccc1F (centres unmarked) [Compound 387, 3-[3-(2-Fluoro-benzylamino)-7-methoxy-2,4-dihydro-indeno[1,2-c]pyrazol-6-yloxy]-propane-1,2-diol] | 100 | 0.0116 | –
COc1ccc(CNc2[nH]nc3c2Cc2cc(OC)c(OC)cc2-3)cc1 [Compound 231, (6,7-Dimethoxy-2,4-dihydro-indeno[1,2-c]pyrazol-3-yl)-(4-methoxy-benzyl)-amine] | 37 | – | –
COc1cc2c(cc1OC)-c1n[nH]c(Nc3ncccc3Br)c1C2 [Compound 582, (3-Bromo-pyridin-2-yl)-(6,7-dimethoxy-2,4-dihydro-indeno[1,2-c]pyrazol-3-yl)-amine] | 82.5 | – | IC50 (read-out: IC50 (μM) on PDGF-R kinase activity): 1.25 µM
COCCCOc1ccc2c(c1)Cc1c-2n[nH]c1Nc1cccc(Cl)c1 [Compound 135, (3-Chloro-phenyl)-[6-(3-methoxy-propoxy)-2,4-dihydro-indeno[1,2-c]pyrazol-3-yl]-amine] | 87 | 0.202 | –
Cc1cccc2c1Cc1c-2n[nH]c1Nc1ccc(OC(F)(F)F)cc1 [Compound 104, (5-Methyl-2,4-dihydro-indeno[1,2-c]pyrazol-3-yl)-(4-trifluoromethoxy-phenyl)-amine] | 36 | 0.666 | –
COc1cc2c(cc1OC)-c1nn(C(C)=O)c(Nc3cccc(F)c3)c1C2 [Compound 406, 1-[3-(3-Fluoro-phenylamino)-6,7-dimethoxy-4H-indeno[1,2-c]pyrazol-2-yl]-ethanone] | 96 | 0.075 | –
CCOC(=O)CCC(=O)n1nc(Nc2cccc(F)c2)c2c1-c1cc(OC)c(OC)cc1C2 [Compound 429, 4-[3-(3-Fluoro-phenylamino)-6,7-dimethoxy-4H-indeno[1,2-c]pyrazol-1-yl]-4-oxo-butyric acid ethyl ester] | 72 | 0.671 | –
COc1cc2c(cc1OC)C(c1ccccc1)c1c-2n[nH]c1Nc1ccccc1 (centres unmarked) [Compound 300, (6,7-Dimethoxy-4-phenyl-2,4-dihydro-indeno[1,2-c]pyrazol-3-yl)-phenyl-amine] | 40 | – | –
Fc1ccc2c(c1)Cc1c-2n[nH]c1Nc1ccccc1 [Compound 24, (6-Fluoro-2,4-dihydro-indeno[1,2-c]pyrazol-3-yl)-phenyl-amine] | 71 | 0.084 | –
COC(=O)n1nc(Nc2cccc(F)c2)c2c1-c1cc(OC)c(OC)cc1C2 [Compound 439, 3-(3-Fluoro-phenylamino)-6,7-dimethoxy-4H-indeno[1,2-c]pyrazole-1-carboxylic acid methyl ester] | 69.5 | 0.62 | –
COc1cc2c(cc1OC)C(C)c1c-2n[nH]c1NCc1cccc(Cl)c1 (centres unmarked) [Compound 333, (3-Chloro-benzyl)-(6,7-dimethoxy-4-methyl-2,4-dihydro-indeno[1,2-c]pyrazol-3-yl)-amine] | 73.5 | 2.55 | –
Cc1ccc(CNc2[nH]nc3c2Cc2cc(F)ccc2-3)cc1Cl [Compound 306, (3-Chloro-4-methyl-benzyl)-(6-fluoro-2,4-dihydroindeno[1,2-c]pyrazol-3-yl)-amine] | 47.5 | 8.59 | –
Clc1cccc(Nc2[nH]nc3c2Cc2c(OCCCN4CCOCC4)cccc2-3)c1 [Compound 392, (3-Chloro-phenyl)-[5-(3-morpholin-4-yl-propoxy)-2,4-dihydro-indeno[1,2-c]pyrazol-3-yl]-amine] | 80 | 0.153 | –
